From US20110034335A1, “Treatment of Ornamental Plants” (priority 2009, published 2011)

How the values were obtained:
Format in all cases: in vivo
Petunia = assay: Spray with 1-MCP solutions with or without Silwet L-77, ethylene challenge (Example 6)
Method: (§1) Spray applications were made using (unless otherwise noted) AFxRD-038 powder containing 3.8% active ingredient, i.e. 1-MCP, and also containing dextrose, alpha-cyclodextrin, and amino acid salt. Rates listed are for active ingredient e.g. 5 mg active ingredient per liter. Sprayed liquid contained (unless otherwise noted) AFxRD-038 powder added to water. AFxRD-038 powder was obtained from AgroFresh Inc. The water used (unless otherwise noted) was tap water. Applications were done in 500 ml spray bottles at rates typical for growth regulators applications in the ornamental industry i.e., 200 ml per square meter. Spraying was done within 5-15 minutes of mixing the formulation. Plants were allowed to dry for 1-4 hours before being challenged with ethylene (2 ppm for about 16 hours at ambient temperatures).
(§2) Surfactant Silwet™ L-77 (called “surf” below) was sometimes included to evaluate the effect of surfactant on efficacy. Silwet™ L-77 was used in the form of a pure liquid. The amounts shown below as “ml/L” refer to milliliters of pure Silwet™ L-77 per liter of liquid CP composition.
Bud wilting (%) of Petunia (in six-pack trays) sprayed with 1-MCP solutions with or without Silwet™ L-77 surfactant and challenged with ethylene.

[1] = tested on: ‘Hark’ Phalaenopsis orchids; assay: Spray with 1-MCP solutions with or without Silwet L-77, ethylene challenge (Example 7)
Method: as §1, §2
Percent of plants showing one or more of flower wilting, bud wilting, and drop on ‘Hark’ Phalaenopsis orchids (in pots) sprayed with 1-MCP solutions with or without Silwet™ L-77 surfactant and challenged with ethylene.

Regal Geranium ‘Jewel’ = assay: Spray with 1-MCP solutions with or without surfactant, ethylene challenge (Example 4)
Method: as §1, §2
(§3) Flower loss (%) on Regal Geranium cultivars, ‘Camelot’ and ‘Jewel’ (in pots), sprayed with 1-MCP solutions with or without surfactant (Silwet™ L-77) and challenged with ethylene.

Regal Geranium ‘Camelot’ = assay: as above
Method: as §1, §2, §3

Impatiens [2] = assay: Spray with 1-MCP solutions, ethylene challenge (Example 1); details: 0 = poor, 5 = excellent
Method: as §1
(§4) Visual appearance and flower or bud abscission of Impatiens (unknown cultivar in pots with diameter of 10 cm (4 inch)) and Cyclamen plants (unknown cultivar in pots of diameter 11.5 cm (4.5 inch)) sprayed with 1-MCP solutions and challenged with ethylene.

Cyclamen plants = assay: as above; details: Day 7; for Appearance: 1 = poor, 5 = excellent
Method: as §1, §4

‘Magenta’ Impatiens = assay: Spray with 1-MCP solutions with Silwet L-77, ethylene challenge (Example 5); details: for Wilt and/or Abscission (%): surf. 0.25 ml/L
Method: as §1, §2

Geranium = assay: Shelf life after low-concentration spray (Example 9); details: EthylBloc powder in distilled water
Excerpt: (§5) Spray liquid was EthylBloc™ powder (contains 0.14% by weight 1-MCP, plus alpha-cyclodextrin and dextrose, obtained from Floralife Inc.) in distilled water. The shelf lives of sprayed and non-sprayed control plants were observed, with the following results: […]

Impatiens [3] = assay: as above; details: EthylBloc powder in distilled water
Excerpt: as §5

New Guinea Impatiens = assay: as above; details: EthylBloc powder in distilled water
Excerpt: as §5

[4] = 1-MCP 5 mg/L, surf 0 ml/L, Day 5
[5] = 1-MCP 10 mg/L, surf 0 ml/L, Day 5
[6] = 1-MCP 5 mg/L, surf. 0 ml/L, Day 1 (Day 1/Day 2 column pair)
[7] = 1-MCP 5 mg/L, surf. 0 ml/L, Day 1 (Day 1/Day 7 column pair)
[8] = 1-MCP 5 mg/L, surf. 0 ml/L, Day 2
[9] = 1-MCP 5 mg/L, surf. 0 ml/L, Day 7
[10] = 1-MCP 5 mg/L, surf. 2 ml/L, Day 1, phytotoxicity was observed
[11] = 1-MCP 5 mg/L, surf. 2 ml/L, Day 2, phytotoxicity was observed
[12] = 1-MCP 10 mg/L, surf. 0 ml/L, Day 1
[13] = 1-MCP 10 mg/L, surf. 0 ml/L, Day 7
[14] = 1-MCP 25 mg/L, surf. 0 ml/L, Day 1
[15] = 1-MCP 25 mg/L, surf. 0 ml/L, Day 7
[16] = 1-MCP 50 mg/L, surf. 0 ml/L, Day 1 (Day 1/Day 2 column pair), phytotoxicity was observed
[17] = 1-MCP 50 mg/L, surf. 0 ml/L, Day 1 (Day 1/Day 7 column pair), phytotoxicity was observed
[18] = 1-MCP 50 mg/L, surf. 0 ml/L, Day 2, phytotoxicity was observed
[19] = 1-MCP 50 mg/L, surf. 0 ml/L, Day 7, phytotoxicity was observed
[20] = 1-MCP 50 mg/L, surf. 2 ml/L, Day 1, phytotoxicity was observed
[21] = 1-MCP 50 mg/L, surf. 2 ml/L, Day 2, phytotoxicity was observed

**Q.** Which results are given for `CC1=CC1` [1-MCP, 1-methylcyclopropene]?
**A.** Bud Wilting (%) (Petunia; 1-MCP 1 mg/L, surf 0 ml/L, Day 5): 89%; Bud Wilting (%) (Petunia; 1-MCP 1 mg/L, surf 0 ml/L, Day 9): 93%; Bud Wilting (%) (Petunia; 1-MCP 1 mg/L, surf 0.25 ml/L, Day 5): 76%; Bud Wilting (%) (Petunia; 1-MCP 1 mg/L, surf 0.25 ml/L, Day 9): 93%; Bud Wilting (%) (Petunia; 1-MCP 2.5 mg/L, surf 0 ml/L, Day 5): 74%; Bud Wilting (%) (Petunia; 1-MCP 2.5 mg/L, surf 0 ml/L, Day 9): 91%; Bud Wilting (%) (Petunia; 1-MCP 2.5 mg/L, surf 0.25 ml/L, Day 5): 68%; Bud Wilting (%) (Petunia; 1-MCP 2.5 mg/L, surf 0.25 ml/L, Day 9): 85%; Bud Wilting (%) (Petunia; [4]): 63%; Bud Wilting (%) (Petunia; 1-MCP 5 mg/L, surf 0 ml/L, Day 9): 71%; Bud Wilting (%) (Petunia; 1-MCP 5 mg/L, surf 0.25 ml/L, Day 5): 57%; Bud Wilting (%) (Petunia; 1-MCP 5 mg/L, surf 0.25 ml/L, Day 9): 67%; Bud Wilting (%) (Petunia; [5]): 34%; Bud Wilting (%) (Petunia; 1-MCP 10 mg/L, surf 0 ml/L, Day 9): 52%; Bud Wilting (%) (Petunia; 1-MCP 10 mg/L, surf 0.25 ml/L, Day 5): 37%; Bud Wilting (%) (Petunia; 1-MCP 10 mg/L, surf 0.25 ml/L, Day 9): 50%; flower wilt, bud wilt, and/or drop (%) ([1]; 1-MCP 5 mg/L, surf 0 ml/L, Day 0): 0 a %; flower wilt, bud wilt, and/or drop (%) [1, 4]: 1.8%; flower wilt, bud wilt, and/or drop (%) ([1]; 1-MCP 5 mg/L, surf 0 ml/L, Day 10): 1.8%; flower wilt, bud wilt, and/or drop (%) ([1]; 1-MCP 5 mg/L, surf 0 ml/L, Day 15): 1.8%; flower wilt, bud wilt, and/or drop (%) ([1]; 1-MCP 10 mg/L, surf 0 ml/L, Day 0): 0 a %; flower wilt, bud wilt, and/or drop (%) [1, 5]: 2.9%; flower wilt, bud wilt, and/or drop (%) ([1]; 1-MCP 10 mg/L, surf 0 ml/L, Day 10): 2.9%; flower wilt, bud wilt, and/or drop (%) ([1]; 1-MCP 10 mg/L, surf 0 ml/L, Day 15): 2.9%; flower wilt, bud wilt, and/or drop (%) ([1]; 1-MCP 25 mg/L, surf 0 ml/L, Day 0): 0 a %; flower wilt, bud wilt, and/or drop (%) ([1]; 1-MCP 25 mg/L, surf 0 ml/L, Day 5): 0%; flower wilt, bud wilt, and/or drop (%) ([1]; 1-MCP 25 mg/L, surf 0 ml/L, Day 10): 0%; flower wilt, bud wilt, and/or drop (%) ([1]; 1-MCP 25 mg/L, surf 0 ml/L, Day 15): 0%; flower wilt, bud wilt, and/or drop (%) ([1]; 1-MCP 50 mg/L, surf 0 ml/L, Day 0): 0 a %; flower wilt, bud wilt, and/or drop (%) ([1]; 1-MCP 50 mg/L, surf 0 ml/L, Day 5): 1.8%; flower wilt, bud wilt, and/or drop (%) ([1]; 1-MCP 50 mg/L, surf 0 ml/L, Day 10): 1.8%; flower wilt, bud wilt, and/or drop (%) ([1]; 1-MCP 50 mg/L, surf 0 ml/L, Day 15): 1.8%; flower wilt, bud wilt, and/or drop (%) ([1]; 1-MCP 50 mg/L, surf 0.25 ml/L, Day 0): 0 a %; flower wilt, bud wilt, and/or drop (%) ([1]; 1-MCP 50 mg/L, surf 0.25 ml/L, Day 5): 0%; flower wilt, bud wilt, and/or drop (%) ([1]; 1-MCP 50 mg/L, surf 0.25 ml/L, Day 10): 0%; flower wilt, bud wilt, and/or drop (%) ([1]; 1-MCP 50 mg/L, surf 0.25 ml/L, Day 15): 0%; Flower Loss (%) (Regal Geranium ‘Jewel’; [6]): 84^ %; Flower Loss (%) (Regal Geranium ‘Jewel’; [7]): 90%; Flower Loss (%) (Regal Geranium ‘Jewel’; [8]): 100 ^ %; Flower Loss (%) (Regal Geranium ‘Jewel’; [9]): 76%; Flower Loss (%) (Regal Geranium ‘Jewel’; [10]): 65^(3) %; Flower Loss (%) (Regal Geranium ‘Jewel’; [11]): 100^(3) %; Flower Loss (%) (Regal Geranium ‘Jewel’; [12]): 85%; Flower Loss (%) (Regal Geranium ‘Jewel’; [13]): 68%; Flower Loss (%) (Regal Geranium ‘Jewel’; [14]): 52%; Flower Loss (%) (Regal Geranium ‘Jewel’; [15]): 43%; Flower Loss (%) (Regal Geranium ‘Jewel’; [16]): 28^(3) %; Flower Loss (%) (Regal Geranium ‘Jewel’; [17]): 26^(3) %; Flower Loss (%) (Regal Geranium ‘Jewel’; [18]): 82^(3) %; Flower Loss (%) (Regal Geranium ‘Jewel’; [19]): 65^(3) %; Flower Loss (%) (Regal Geranium ‘Jewel’; [20]): 35^(3) %; Flower Loss (%) (Regal Geranium ‘Jewel’; [21]): 81^(3) %; Flower Loss (%) (Regal Geranium ‘Camelot’; [6]): 45 ^ %; Flower Loss (%) (Regal Geranium ‘Camelot’; [7]): 62%; Flower Loss (%) (Regal Geranium ‘Camelot’; [8]): 64^ %; Flower Loss (%) (Regal Geranium ‘Camelot’; [9]): 46%; Flower Loss (%) (Regal Geranium ‘Camelot’; [10]): 5^(3) %; Flower Loss (%) (Regal Geranium ‘Camelot’; [11]): 24^(3) %; Flower Loss (%) (Regal Geranium ‘Camelot’; [12]): 20%; Flower Loss (%) (Regal Geranium ‘Camelot’; [13]): 0%; Flower Loss (%) (Regal Geranium ‘Camelot’; [14]): 28%; Flower Loss (%) (Regal Geranium ‘Camelot’; [15]): 27%; Flower Loss (%) (Regal Geranium ‘Camelot’; [16]): 0^(3) %; Flower Loss (%) (Regal Geranium ‘Camelot’; [17]): 0^(3) %; Flower Loss (%) (Regal Geranium ‘Camelot’; [18]): 0^(3) %; Flower Loss (%) (Regal Geranium ‘Camelot’; [19]): 48^(3) %; Flower Loss (%) (Regal Geranium ‘Camelot’; [20]): 5^(3) %; Flower Loss (%) (Regal Geranium ‘Camelot’; [21]): 44^(3) %; Appearance (Impatiens [2]; 1-MCP 10 mg/L, Day 1): 3.7; Appearance (Impatiens [2]; 1-MCP 10 mg/L, Day 4): 3.3; Appearance (Impatiens [2]; 1-MCP 100 mg/L, Day 1): 4.3; Appearance (Impatiens [2]; 1-MCP 100 mg/L, Day 4): 3.7; Appearance (Impatiens [2]; 1-MCP 300 mg/L, Day 1): 2.3; Appearance (Impatiens [2]; 1-MCP 300 mg/L, Day 4): 1.3; Abscission (%) (Cyclamen plants; 1-MCP 10 mg/L): 25.6%; Appearance (Cyclamen plants; 1-MCP 10 mg/L): 3.7; Abscission (%) (Cyclamen plants; 1-MCP 15 mg/L): 23.3%; Appearance (Cyclamen plants; 1-MCP 15 mg/L): 3.7; Abscission (%) (Cyclamen plants; 1-MCP 25 mg/L): 25.0%; Appearance (Cyclamen plants; 1-MCP 25 mg/L): 3.7; Wilt and/or Abscission (%) (‘Magenta’ Impatiens; 1-MCP 5 mg/L): 3%; Wilt and/or Abscission (%) (‘Magenta’ Impatiens; 1-MCP 10 mg/L): 2%; Wilt and/or Abscission (%) (‘Magenta’ Impatiens; 1-MCP 25 mg/L): 5%; Wilt and/or Abscission (%) (‘Magenta’ Impatiens; 1-MCP 50 mg/L): 0%; phytotoxicity (‘Magenta’ Impatiens; even at the highest rates with Silwet L-77): No phytotoxicity was observed; Shelf Life (Geranium; 1-MCP 0.03 mg/L): 3 days; Shelf Life (Geranium; 1-MCP 0.32 mg/L): 4 days; Shelf Life (Impatiens [3]; 1-MCP 0.03 mg/L): 3 days; Shelf Life (Impatiens [3]; 1-MCP 0.32 mg/L): 5 days; Shelf Life (New Guinea Impatiens; 1-MCP 0.03 mg/L): 4 days; Shelf Life (New Guinea Impatiens; 1-MCP 0.32 mg/L): 7 days
